Counter-ions that a name gives are not always drawn.
Tests used:
[1] = molecular target: T1, cFMS (Homo sapiens, UniProt P07333); assay: cFMS Cell-Based Assay (Example C); settings: averaged IC50; phospho-cFMS in THP-1 cells stimulated with 250 ng/mL recombinant human MCSF; read-out: cFMS Cell ELISA IC50
T1 construct: THP-1 cells (human acute monocytic leukemia cell line) were serum-starved for 4 hours; endogenous in cells; host or cells: THP-1 cells (human acute monocytic leukemia cell line)
In short: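 Phosphotyrosine on cFMS, captured from lysates and quantified by ELISA, reads receptor activation after 1 min of 250 ng/mL human MCSF. Beforehand, THP-1 cells were serum-starved for 4 h and exposed to compound for 1 h (9 points, 3-fold, typically up to 5,000 nM). IC50 from a 4-parameter logistic fit as 50 percent of control.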

[2] = molecular target: T2, c-KIT (Homo sapiens, UniProt P10721); assay: c-KIT Cell-Based Assay (Example D); settings: averaged IC50; phospho-c-KIT in M-07e cells stimulated with 150 ng/ml recombinant human SCF; read-out: cKIT Cell ELISA IC50
T2 construct: M-07e cells (human acute megakaryoblastic leukemia cell line) were serum-starved for 4 hours; endogenous in cells; host or cells: M-07e cells (human acute megakaryoblastic leukemia cell line)
T2 sequence (P10721 26-976): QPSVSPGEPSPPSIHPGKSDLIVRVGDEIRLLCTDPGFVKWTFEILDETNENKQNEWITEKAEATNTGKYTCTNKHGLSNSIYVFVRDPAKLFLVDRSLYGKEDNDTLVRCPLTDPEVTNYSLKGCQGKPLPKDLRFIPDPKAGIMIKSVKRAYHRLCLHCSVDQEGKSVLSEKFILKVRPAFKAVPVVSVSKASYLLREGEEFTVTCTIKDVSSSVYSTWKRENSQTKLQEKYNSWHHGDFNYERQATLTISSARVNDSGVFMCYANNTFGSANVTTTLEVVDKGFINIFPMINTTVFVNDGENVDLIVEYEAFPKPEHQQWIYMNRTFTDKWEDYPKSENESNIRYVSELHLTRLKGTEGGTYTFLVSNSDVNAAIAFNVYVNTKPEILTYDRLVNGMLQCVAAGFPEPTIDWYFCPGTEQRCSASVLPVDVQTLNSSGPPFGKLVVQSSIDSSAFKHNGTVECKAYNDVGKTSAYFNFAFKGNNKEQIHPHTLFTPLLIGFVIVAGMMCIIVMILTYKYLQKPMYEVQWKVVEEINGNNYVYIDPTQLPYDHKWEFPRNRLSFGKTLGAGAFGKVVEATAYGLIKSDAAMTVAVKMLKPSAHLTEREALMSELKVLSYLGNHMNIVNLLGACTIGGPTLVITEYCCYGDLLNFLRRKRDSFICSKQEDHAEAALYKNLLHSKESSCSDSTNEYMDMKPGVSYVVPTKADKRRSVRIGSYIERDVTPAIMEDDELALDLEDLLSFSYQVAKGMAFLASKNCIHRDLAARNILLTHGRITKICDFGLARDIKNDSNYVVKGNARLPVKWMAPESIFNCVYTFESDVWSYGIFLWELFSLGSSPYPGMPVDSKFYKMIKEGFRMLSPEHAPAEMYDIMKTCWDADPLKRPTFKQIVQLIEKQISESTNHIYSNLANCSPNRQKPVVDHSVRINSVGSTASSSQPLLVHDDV
In short: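 Phospho-c-KIT ELISA readout, calibrated with purified phospho-SCF R, gave IC50 (4-parameter fit, 50% of control). Before lysis, M-07e cells were starved 4 h, exposed 1 h to a 9-point 3-fold series (highest usually 5,000 nM), and stimulated with 150 ng/ml SCF for 4 min.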

[3] = molecular target: T3, PDGFR beta (Homo sapiens, UniProt P09619); assay: Phospho PDGFR LICOR Cell Assay (Example B); format: cell-based; settings: averaged IC50; PDGFR beta phosphorylation in HS27 human fibroblast cell line, PDGF-BB stimulation 10 minutes, normalized to total ERK
T3 construct: endogenous in cells; host or cells: HS27 human fibroblast cell line
T3 sequence (P09619 33-1106): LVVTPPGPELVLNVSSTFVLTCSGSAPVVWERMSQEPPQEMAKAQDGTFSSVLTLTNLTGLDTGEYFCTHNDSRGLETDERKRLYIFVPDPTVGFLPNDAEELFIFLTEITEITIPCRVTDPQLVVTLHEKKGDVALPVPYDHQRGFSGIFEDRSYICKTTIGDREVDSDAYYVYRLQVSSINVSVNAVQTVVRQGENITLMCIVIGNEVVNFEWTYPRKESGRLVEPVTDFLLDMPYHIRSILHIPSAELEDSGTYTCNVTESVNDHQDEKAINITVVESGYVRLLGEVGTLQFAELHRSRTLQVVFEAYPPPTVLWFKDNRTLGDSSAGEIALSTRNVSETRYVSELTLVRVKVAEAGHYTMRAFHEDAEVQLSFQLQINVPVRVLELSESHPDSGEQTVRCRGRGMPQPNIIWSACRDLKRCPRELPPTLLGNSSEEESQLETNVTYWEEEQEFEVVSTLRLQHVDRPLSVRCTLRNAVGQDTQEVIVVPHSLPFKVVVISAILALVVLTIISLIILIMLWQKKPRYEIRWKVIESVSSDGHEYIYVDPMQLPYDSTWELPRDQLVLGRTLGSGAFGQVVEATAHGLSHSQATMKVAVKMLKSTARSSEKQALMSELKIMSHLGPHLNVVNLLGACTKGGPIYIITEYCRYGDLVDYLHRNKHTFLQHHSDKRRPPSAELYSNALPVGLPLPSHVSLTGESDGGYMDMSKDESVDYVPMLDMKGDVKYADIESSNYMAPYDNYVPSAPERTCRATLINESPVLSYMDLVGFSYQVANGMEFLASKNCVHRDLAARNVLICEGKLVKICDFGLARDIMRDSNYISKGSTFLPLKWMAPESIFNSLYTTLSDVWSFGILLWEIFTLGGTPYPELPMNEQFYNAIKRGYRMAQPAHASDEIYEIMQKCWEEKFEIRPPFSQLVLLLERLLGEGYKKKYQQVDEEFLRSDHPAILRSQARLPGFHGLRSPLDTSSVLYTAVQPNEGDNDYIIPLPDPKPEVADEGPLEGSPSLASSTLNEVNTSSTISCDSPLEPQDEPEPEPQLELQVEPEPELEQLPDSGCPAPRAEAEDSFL
In short: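 Read-out is in-cell phospho-PDGFRβ/total-ERK infrared immunofluorescence in HS27 fibroblasts. Cells got 1 h compound exposure before a 10 min PDGF-BB challenge. A 4-parameter logistic fit gave IC50 as the concentration yielding 50 percent of control.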

T1 sequence (P07333 20-972): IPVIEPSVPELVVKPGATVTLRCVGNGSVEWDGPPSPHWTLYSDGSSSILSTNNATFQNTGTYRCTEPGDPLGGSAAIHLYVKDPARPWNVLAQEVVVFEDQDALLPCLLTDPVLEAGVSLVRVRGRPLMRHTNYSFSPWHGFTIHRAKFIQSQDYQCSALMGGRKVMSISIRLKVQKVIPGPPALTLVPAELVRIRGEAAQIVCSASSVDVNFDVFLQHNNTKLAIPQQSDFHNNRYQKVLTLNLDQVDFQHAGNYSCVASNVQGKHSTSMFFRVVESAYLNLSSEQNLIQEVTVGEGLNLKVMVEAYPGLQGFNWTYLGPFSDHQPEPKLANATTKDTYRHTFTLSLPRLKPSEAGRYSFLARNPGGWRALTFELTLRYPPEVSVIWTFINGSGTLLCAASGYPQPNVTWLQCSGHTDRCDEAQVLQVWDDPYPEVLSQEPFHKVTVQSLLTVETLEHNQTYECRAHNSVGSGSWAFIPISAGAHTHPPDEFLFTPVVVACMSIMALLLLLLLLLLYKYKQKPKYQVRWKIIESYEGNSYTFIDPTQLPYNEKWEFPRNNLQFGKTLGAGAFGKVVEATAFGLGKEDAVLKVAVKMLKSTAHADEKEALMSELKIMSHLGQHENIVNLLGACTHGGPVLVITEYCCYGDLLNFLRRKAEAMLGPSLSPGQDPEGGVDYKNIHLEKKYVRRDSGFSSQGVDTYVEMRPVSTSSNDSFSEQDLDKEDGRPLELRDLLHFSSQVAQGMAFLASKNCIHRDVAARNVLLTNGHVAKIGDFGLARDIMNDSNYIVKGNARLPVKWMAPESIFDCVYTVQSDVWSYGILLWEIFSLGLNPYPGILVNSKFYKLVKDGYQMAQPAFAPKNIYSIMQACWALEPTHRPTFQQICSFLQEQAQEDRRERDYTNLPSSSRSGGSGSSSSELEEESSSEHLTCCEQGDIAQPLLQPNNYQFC

| SMILES | IC50 [1] | IC50 [2] | IC50 [3] |
| --- | --- | --- | --- |
| CN1CCN(CCOc2ccn3c(C(=O)Nc4cccc5c4cnn5Cc4cccc(C(=O)N(C)C)c4)cnc3c2)CC1 [Example 97, N-(1-(3-(dimethylcarbamoyl)benzyl)-1H-indazol-4-yl)-7-(2-(4-methylpiperazin-1-yl)ethoxy)imidazo[1,2-a]pyridine-3-carboxamide dihydrochloride] | 0.0104 µM | 0.0257 µM | 0.0096 µM |
| COCCOc1ccn2c(C(=O)Nc3cccc4c3cnn4Cc3cccc(C)n3)cnc2c1 [Example 142, 7-(2-methoxyethoxy)-N-(1-((6-methylpyridin-2-yl)methyl)-1H-indazol-4-yl)imidazo[1,2-a]pyridine-3-carboxamide] | 0.0069 µM | 0.0061 µM | 0.0142 µM |
| Cc1cccc(Cn2nc(C)c3c(NC(=O)c4cnc5cc(-c6cnn(C)c6)ccn45)cccc32)n1 [Example 68, N-(3-methyl-1-((6-methylpyridin-2-yl)methyl)-1H-indazol-4-yl)-7-(1-methyl-1H-pyrazol-4-yl)imidazo[1,2-a]pyridine-3-carboxamide] | 0.005 µM | 0.0769 µM | 0.0232 µM |
| CN1CCN(CCOc2ccn3c(C(=O)Nc4cccc5c4cnn5Cc4cccn(C)c4=O)cnc3c2)CC1 [Example 104, N-(1-((1-methyl-2-oxo-1,2-dihydropyridin-3-yl)methyl)-1H-indazol-4-yl)-7-(2-(4-methylpiperazin-1-yl)ethoxy)imidazo[1,2-a]pyridine-3-carboxamide dihydrochloride] | 0.0337 µM | 0.398 µM | 0.0784 µM |
| CN1CCN(CCOc2ccn3c(C(=O)Nc4cccc5c4cnn5Cc4ccc5[nH]cnc5c4)cnc3c2)CC1 [Example 108, N-(1-((1H-benzo[d]imidazol-5-yl)methyl)-1H-indazol-4-yl)-7-(2-(4-methylpiperazin-1-yl)ethoxy)imidazo[1,2-a]pyridine-3-carboxamide dihydrochloride] | 0.0667 µM | 0.181 µM | 0.142 µM |
| O=C(Nc1cccc2c1cnn2Cc1ccccc1)c1cnc2ccc(C(O)CO)cn12 (stereo not drawn) [Example 158, N-(1-benzyl-1H-indazol-4-yl)-6-(1,2-dihydroxyethyl)imidazo[1,2-a]pyridine-3-carboxamide] | 0.535 µM | 2.1 µM | 2.4 µM |
| Cc1cccc(Cn2nc(C)c3c(NC(=O)c4cnc5cc(OCCN(C)C)ccn45)cccc32)n1 [Example 60, 7-(2-(dimethylamino)ethoxy)-N-(3-methyl-1-((6-methylpyridin-2-yl)methyl)-1H-indazol-4-yl)imidazo[1,2-a]pyridine-3-carboxamide] | 0.0356 µM | 4.56 µM | 5 µM |
| COCCOc1ccn2c(C(=O)Nc3c(Br)ccc4c3cnn4Cc3ccccc3)cnc2c1 [Example 134, N-(1-Benzyl-5-bromo-1H-indazol-4-yl)-7-(2-methoxyethoxy)imidazo[1,2-a]pyridine-3-carboxamide] | 0.0031 µM | 0.011 µM | 0.0024 µM |
| CN1CCN(CCOc2ccn3c(C(=O)Nc4cccc5c4cnn5CCc4ccccn4)cnc3c2)CC1 [Example 107, 7-(2-(4-methylpiperazin-1-yl)ethoxy)-N-(1-(2-(pyridin-2-yl)ethyl)-1H-indazol-4-yl)imidazo[1,2-a]pyridine-3-carboxamide] | 0.0448 µM | 0.123 µM | 0.158 µM |
| Cc1cccc(Cn2nc(C)c3c(NC(=O)c4cnc5cc(OCCN6CCN(C)CC6)ccn45)cccc32)n1 [Example 89, N-(3-methyl-1-((6-methylpyridin-2-yl)methyl)-1H-indazol-4-yl)-7-(2-(4-methylpiperazin-1-yl)ethoxy)imidazo[1,2-a]pyridine-3-carboxamide tetrahydrochloride] | 0.0073 µM | 1.05 µM | 0.845 µM |
| N#Cc1ccn2c(C(=O)Nc3cccc4c3cnn4Cc3ccccc3)cnc2c1 [Example 152, N-(1-benzyl-1H-indazol-4-yl)-7-cyanoimidazo[1,2-a]pyridine-3-carboxamide] | 0.117 µM | 0.165 µM | 0.296 µM |
| O=C(Nc1cccc2c1cnn2Cc1ccccn1)c1cnc2ccccn12 [Example 129, N-(1-(pyridin-2-ylmethyl)-1H-indazol-4-yl)imidazo[1,2-a]pyridine-3-carboxamide] | 0.08 µM | 0.124 µM | 0.117 µM |
| Cc1nn(Cc2cc(C)n(C(C)C)n2)c2cccc(NC(=O)c3cnc4cc(OCCN5CCN(C)[C@@H](C)C5)ccn34)c12 [Example 29, (S)-7-(2-(3,4-dimethylpiperazin-1-yl)ethoxy)-N-(1-((1-isopropyl-5-methyl-1H-pyrazol-3-yl)methyl)-3-methyl-1H-indazol-4-yl)imidazo[1,2-a]pyridine-3-carboxamide] | 0.0286 µM | 0.162 µM | 0.0441 µM |
| CCOc1cccc(Cn2nc(C)c3c(NC(=O)c4cnc5cc(OCCN6CCN(C)CC6)ccn45)cccc32)n1 [Example 86, N-(1-((6-ethoxypyridin-2-yl)methyl)-3-methyl-1H-indazol-4-yl)-7-(2-(4-methylpiperazin-1-yl)ethoxy)imidazo[1,2-a]pyridine-3-carboxamide] | 0.007 µM | 0.314 µM | 0.117 µM |
| COCCOc1ccn2c(C(=O)Nc3cccc4c3cnn4CCc3ccccc3)cnc2c1 [Example 151, 7-(2-methoxyethoxy)-N-(1-phenethyl-1H-indazol-4-yl)imidazo[1,2-a]pyridine-3-carboxamide] | 0.0448 µM | 0.0373 µM | 0.009 µM |
| COCCOc1ccn2c(C(=O)Nc3cccc4c3c(C)nn4Cc3ccccc3)cnc2c1 [Example 80, N-(1-benzyl-3-methyl-1H-indazol-4-yl)-7-(2-methoxyethoxy)imidazo[1,2-a]pyridine-3-carboxamide] | 0.0082 µM | 5.7 µM | 0.174 µM |
| CN1CCN(CCOc2ccn3c(C(=O)Nc4cccc5c4cnn5Cc4cccc(C(F)(F)F)c4)cnc3c2)CC1 [Example 98, 7-(2-(4-methylpiperazin-1-yl)ethoxy)-N-(1-(3-(trifluoromethyl)benzyl)-1H-indazol-4-yl)imidazo[1,2-a]pyridine-3-carboxamide dihydrochloride] | 0.0263 µM | 0.0049 µM | 0.0057 µM |
| Cc1nn(Cc2ccn(C(C)C)n2)c2cccc(NC(=O)c3cnc4cc(OCCN5CCN(C(C)C)CC5)ccn34)c12 [Example 49, N-(1-((1-isopropyl-1H-pyrazol-3-yl)methyl)-3-methyl-1H-indazol-4-yl)-7-(2-(4-isopropylpiperazin-1-yl)ethoxy)imidazo[1,2-a]pyridine-3-carboxamide] | 0.0118 µM | 0.0535 µM | 0.0097 µM |
| Cc1nn(Cc2csc(C(C)C)n2)c2cccc(NC(=O)c3cnc4cc(OCCN5CCN(C)[C@@H](C)C5)ccn34)c12 [Example 30, (S)-7-(2-(3,4-dimethylpiperazin-1-yl)ethoxy)-N-(1-((2-isopropylthiazol-4-yl)methyl)-3-methyl-1H-indazol-4-yl)imidazo[1,2-a]pyridine-3-carboxamide] | 0.0176 µM | 0.0653 µM | 0.0174 µM |
| COCCOc1ccn2c(C(=O)Nc3cccc4c3cnn4Cc3ccncc3)cnc2c1 [Example 111, 7-(2-methoxyethoxy)-N-(1-(pyridin-4-ylmethyl)-1H-indazol-4-yl)imidazo[1,2-a]pyridine-3-carboxamide] | 0.15 µM | 0.451 µM | 0.449 µM |
| COCCOc1ccn2c(C(=O)Nc3cccc4c3cnn4CC3CCCCC3)cnc2c1 [Example 115, N-(1-(cyclohexylmethyl)-1H-indazol-4-yl)-7-(2-methoxyethoxy)imidazo[1,2-a]pyridine-3-carboxamide] | 0.0241 µM | 0.0134 µM | 0.0068 µM |
| COCCOc1ccn2c(C(=O)Nc3cccc4c3cnn4Cc3cccc(Cl)c3)cnc2c1 [Example 141, N-(1-(3-chlorobenzyl)-1H-indazol-4-yl)-7-(2-methoxyethoxy)imidazo[1,2-a]pyridine-3-carboxamide] | 0.0044 µM | 0.0037 µM | 0.0016 µM |
| CC(C)c1cccc(Cn2ncc3c(NC(=O)c4cnc5cc(OCCN6CCN(C)CC6)ccn45)cccc32)n1 [Example 138, N-(1-((6-isopropylpyridin-2-yl)methyl)-1H-indazol-4-yl)-7-(2-(4-methylpiperazin-1-yl)ethoxy)imidazo[1,2-a]pyridine-3-carboxamide] | 0.0085 µM | 0.0039 µM | 0.0019 µM |
| CCOc1cccc(Cn2ncc3c(NC(=O)c4cnc5cc(OCCN6CCN(C)CC6)ccn45)cccc32)n1 [Example 105, N-(1-((6-ethoxypyridin-2-yl)methyl)-1H-indazol-4-yl)-7-(2-(4-methylpiperazin-1-yl)ethoxy)imidazo[1,2-a]pyridine-3-carboxamide] | 0.0033 µM | 0.0027 µM | 0.0026 µM |

From patent publication US10669269B2, “Substituted N-(1H-indazol-4-yl)imidazo[1,2-a]pyridine-3-carboxamide compounds as type III receptor tyrosine kinase inhibitors” (ARRAY BIOPHARMA INC., priority 2010, dated 2020)
